In patent US6825236B2, “Colchicine derivatives” (California Pacific Medical Center, priority 2003, dated 2004):

System: HCT116
Test: Cell colony formation assay
Assay type: cell-based
Conditions: 72 hours with drug, colonies counted after 7 days
Method: This example provides directions for growing cells and testing compounds of the invention for their effect on the growth of the cells. All cells were purchased from DCTDC Tumor Repository, NCI, NIH.
Cell Colony Formation Assay
Four hundred cells (HCT 116, PC-3) or five hundred cells (VM46) were plated in 60 mm Petri dishes containing 2.7 ml of medium (modified McCoy's 5a medium) containing 10% fetal bovine serum and 100 units/ml penicillin and […] streptomycin. The cells were incubated in a CO2 incubator at 37° C. for 5 hours for attachment to the bottom of Petri dishes. Drugs were made fresh in medium at ten times the final concentration, and then 0.3 ml of this stock solution was added to the 2.7 ml of medium in the dish. The cells were then incubated with drugs for 72 hours at 37° C. At the end of the incubation the drug-containing media were decanted, the dishes were rinsed with 4 ml of Hank's Balance Salt Solution (HBSS), 5 ml of fresh medium was added, and the dishes were returned to the incubator for colony formation. The cell colonies were counted using colony counter after incubation for 7 days for HCT116 cells and PC-3 cells and 8 days for VM46 cells, respectively.
Values of ID50 (the drug concentration producing 50% inhibition of colony formation) may be determined for each tested compound. The directions described in this example may be used in other cells, such as DU-145.

Compound | Survival (%) of HCT116 (100 nM) [%] | Survival (%) of HCT116 (10 nM) [%] | Survival (%) of HCT116 (1 nM) [%]
COc1cc2c(c(OC)c1OC)-c1ccc(SC)c(=O)cc1[C@@H](NC(=O)COc1cc(C(F)(F)F)cc(C(F)(F)F)c1)CC2 [Compound 001207, N-Deacetyl-N-(3,5-di-trifluoromethylphenoxyacetyl)thiocolchicine] | 3.10 | – | –
COc1cc2c(c(OC)c1OC)-c1ccc(SC)c(=O)cc1C(NC(=O)COc1ccc(OC(F)(F)F)cc1)CC2 (stereo not drawn) [Compound 001213, N-Deacetyl-N-(4-trifluoromethoxyphenoxyacetyl)thiocolchicine] | 62.56 | – | –
COc1cc2c(c(OC)c1OC)-c1ccc(SC)c(=O)cc1C(NC(=O)CCN1CCN(c3cccc(C(F)(F)F)c3)CC1)CC2 (stereo not drawn) [Compound 001227, N-Deacetyl-N-(3-(4-[3-trifluoromethylphenyl]piperazinyl)propionyl)thiocolchicine] | 0 | 100 | –
COc1cc2c(c(OC)c1OC)-c1ccc(SC)c(=O)cc1C(NC(=O)COc1c(I)cc(C#N)cc1I)CC2 (stereo not drawn) [Compound 001229, N-Deacetyl-N-(2,6-diiodo-4-cyanophenoxyacetyl)thiocolchicine] | 0 | 100 | –
COc1cc2c(c(OC)c1OC)-c1ccc(SC)c(=O)cc1[C@@H](NC(=O)c1cn(C)c3nc(C)ccc3c1=O)CC2 [Compound 000920, N-Deacetyl-N-(1,7-dimethylnaphthyridin-4-one-3-carboxy)thiocolchicine] | 95.68 | – | –
COc1cccc(N2CCN(CCC(=O)NC3CCc4cc(OC)c(OC)c(OC)c4-c4ccc(SC)c(=O)cc43)CC2)c1 (stereo not drawn) [Compound 001225, N-Deacetyl-N-(4-[3-methoxyphenyl]-piperazinylpropionyl)thiocolchicine] | 0 | 80.5 | –
COc1cc2c(c(OC)c1OC)-c1ccc(SC)c(=O)cc1C(NC(=O)Cn1cc(C)c(=O)[nH]c1=O)CC2 (stereo not drawn) [Compound 000905, N-Deacetyl-N-(thymine-1-acetyl)thiocolchicine] | 96.66 | – | –
COc1cc2c(c(OC)c1OC)-c1ccc(SC)c(=O)cc1[C@@H](NC(=O)COc1ccc([N+](=O)[O-])c(C(F)(F)F)c1)CC2 [Compound 001107, N-Deacetyl-N-(3-trifluoromethyl-4-nitropbenoxyacetyl)thiocolchicine] | 100 | – | –
COc1cc2c(c(OC)c1OC)-c1ccc(SC)c(=O)cc1C(NC(=O)COc1ccc(C#N)c(F)c1)CC2 (stereo not drawn) [Compound 001106, N-Deacetyl-N-(3-fluoro-4-cyanophenoxyacetyl)thiocoichicine] | 0 | 98.51 | –
COc1cccc(OCC(=O)NC2CCc3cc(OC)c(OC)c(OC)c3-c3ccc(SC)c(=O)cc32)c1 (stereo not drawn) [Compound 001024, N-Deacetyl-N-(3-methoxyphenoxyacetyl)thiocolchicine] | 0 | 98.0 | –
COc1cc2c(c(OC)c1OC)-c1ccc(SC)c(=O)cc1C(NC(=O)CSc1cc(C)c(Cl)cc1Cl)CC2 (stereo not drawn) [Compound 000831] | 89.15 | – | –
COc1cc2c(c(OC)c1OC)-c1ccc(SC)c(=O)cc1C(NC(=O)c1ccc3c(c1)C(=O)c1ccccc1C3=O)CC2 (stereo not drawn) [Compound 000908, N-Deacetyl-N-(anthraquinone-2-carbonyl)thiocolchicine] | 0 | 100 | –
CCC(=C(CC)c1ccc(OCC(=O)NC2CCc3cc(OC)c(OC)c(OC)c3-c3ccc(SC)c(=O)cc32)cc1)c1ccc(OCC(=O)NC2CCc3cc(OC)c(OC)c(OC)c3-c3ccc(SC)c(=O)cc32)cc1 (stereo not drawn) [Compound 000927, Dimer of N-Deacetylthiocolchicine] | 0 | 100 | –
COc1cc2c(c(OC)c1OC)-c1ccc(SC)c(=O)cc1[C@@H](NC(=O)COc1ccc([N+](=O)[O-])cc1)CC2 [Compound 001127, N-Deacetyl-N-(4-nitrophenoxyacetyl)thiocolchicine] | 0 | 75.37 | –
CCC(=C(CC)c1ccc(OCC(=O)NC2CCc3cc(OC)c(OC)c(OC)c3-c3ccc(SC)c(=O)cc32)cc1)c1ccc(OCC(=O)NC2CCc3cc(OC)c(OC)c(OC)c3-c3ccc(SC)c(=O)cc32)cc1 (stereo not drawn) [Compound 000828, Dimer of N-Deacetylthiocolchicine] | 93.81 | – | –
COc1cc2c(c(OC)c1OC)-c1ccc(SC)c(=O)cc1C(NC(=O)c1ccc(N3C(=O)c4ccccc4C3=O)cc1)CC2 (stereo not drawn) [Compound 001114, N-Deacetyl-N-(4-phthalimidobenzoyl)thiocolchicine] | 95.05 | – | –
COc1cc2c(c(OC)c1OC)-c1ccc(SC)c(=O)cc1[C@@H](NC(C)=O)CC2 [Thiocolchicine, thiocolchicine, reference compound] | 0 | 0 | 100
COc1cc2c(c(OC)c1OC)-c1ccc(SC)c(=O)cc1C(NC(=O)CCN1C(=O)c3ccccc3C1=O)CC2 (stereo not drawn) [Compound 000925, N-Deacetyl-N-(3-phthalimidopropionyl)thiocolchicine] | 0 | 98.67 | –
COc1cc2c(c(OC)c1OC)-c1ccc(SC)c(=O)cc1C(NC(=O)C(C)ON=C1c3cc([N+](=O)[O-])cc([N+](=O)[O-])c3-c3c1cc([N+](=O)[O-])cc3[N+](=O)[O-])CC2 (stereo not drawn) [Compound 000913, N-Deacetyl-N-[(+)-2-(2,4,5,7-tetranitro-9-fluorenylideneaminooxy)propionyl]thiocolchicine] | 1.00 | 90.91 | –
COc1cc2c(c(OC)c1OC)-c1ccc(SC)c(=O)cc1C(NC(=O)Cn1cnnn1)CC2 (stereo not drawn) [Compound 000918, N-Deacetyl-N-(1H-tetrazole-1-acetyl)thiocolchicine] | 13.61 | – | –
COc1cc2c(c(OC)c1OC)-c1ccc(SC)c(=O)cc1C(NC(=O)N1c3ccccc3Sc3ccccc31)CC2 (stereo not drawn) [Compound 000928, N-Deacetyl-N-(phenothiazin-10-ylcarbonyl)thiocolchicine] | 100 | – | –
COc1cc2c(c(OC)c1OC)-c1ccc(SC)c(=O)cc1C(NC(=O)C1CCCN1C(=O)OC(C)(C)C)CC2 (stereo not drawn) [Compound 000915, N-Deacetyl-N-(1-t-butoxycarbonyl-2-pyrrolidinecarbonyl)thiocolchicine] | 70.12 | – | –
COc1cc2c(c(OC)c1OC)-c1ccc(SC)c(=O)cc1C(NC(=O)CSc1ccc(Cl)cc1)CC2 (stereo not drawn) [Compound 000921, N-Deacetyl-N-[(4-chlorophenylthio)acetyl]thiocoichicine] | 0 | 96.18 | –
COc1cc2c(c(OC)c1OC)-c1ccc(SC)c(=O)cc1C(NC(=O)CCc1cccnc1)CC2 (stereo not drawn) [Compound 000901, N-Deacetyl-N-(3-pyridinepropionyl)thiocolchicine] | 0 | 61.60 | –
COc1cc2c(c(OC)c1OC)-c1ccc(SC)c(=O)cc1C(NC(=O)COc1ccnc3ccccc13)CC2 (stereo not drawn) [Compound 001201, N-Deacetyl-N-(quinoline-4-oxyacetyl)thiocolchicine] | 95.07 | – | –
COc1cc2c(c(OC)c1OC)-c1ccc(SC)c(=O)cc1C(NC(=O)CSc1ccncc1)CC2 (stereo not drawn) [Compound 000922, N-Deacetyl-N-(4-pyridylthioacetyl)thiocolchicine] | 0 | 0 | 100
